How the values were obtained:
[1] = system: brown skin surface lipids of the rats; assay: Rat skin browning test for antiseborrheic (sebosuppressive) effect, visual assessment of shaved back; assay type: in vivo, male Wistar rats; settings: topical; for Evaluation of sebosuppressive effects, evaluation method 1 (examiners recognizing the treated side) / Evaluation of sebosuppressive effects, evaluation method 2 (difference between righthand and lefthand side) / Evaluation of sebosuppressive effects, evaluation method 3 (difference in intensity of brown shades vs control animals): once daily for a total of 9 days over 14 days; for Sebum reduction: points difference / points of control group
From the text: The antiseborrheic effect was closely studied using the animal tests described in the following: The test animals were male Wistar rats having a body weight of 220 to 230 g. The degree of browning on the shaved back of the rats was visually assessed. Browning is produced by the brown skin surface lipids of the rats. This test is based on the observation that young male and female rats washed with surfactant solution or with a lipid solvent and also male rats systematically treated with oestrogen have only the normal light, pick-colored skin after shaving. At the same time, only comparatively very small quantities of lipids can be extracted from shaved hairs. In order to assess effectiveness, the test substances in solution in alcohol were each brushed onto half the back of 6 rats. The other half was only treated with the solvent minus active substances. Over the test period of 14 days, the test substances were applied once daily for a total of 9 days. A group of 6 rats which remained completely untreated was used for further control. At the end of the test, the animals were shaved on their back and sides and were visually assessed independently by an examination panel of 6 people under double blind conditions. The first criterion evaluated was whether the majority of examiners correctly recognized the treated side, differentiation being carried out as follows: The second criterion evaluated was the difference between the righthand side and the lefthand side, each examiner having to award 1 point per animal on the following basis: Significant differences between the untreated and treated sides in the second method of evaluation indicated the local effectiveness of a substance. The third criterion evaluated was the difference in intensity between the shades of brown using the following scale: In the third method of evaluation, the total point differences are compared between the untreated control animals and the treated and untreated sides of the test animals, significant differences between the control animals and the treated side of the test animals again indicating the effectiveness of a substance. There is generally also a distinct difference between the untreated and treated sides of the same test animals. However, this difference is not always as clear as that between the control animals and the treated sides, for which there may be various reasons, such as mechanical transfer of substance from one side to the other or solvent influence. The following scheme was used for differentiating the effects according to evaluation methods 2 and 3: The sebum reduction is calculated from the points difference by working out the quotient between the points difference ΔP and the number of points for the control group Pk, and expressing the value obtained in percent. [formula] The benzyl alcohol derivatives were applied in the manner described in concentrations of 0.5 and 1.0% in alcohol/acetone (1:1).

[2] = system: secretion of the sebaceous glands; settings: known additives of U.S. Pat. No. 4,331,655 / German Patent Application 29 26 267; cited from earlier work

Structure (SMILES)	Evaluation of sebosuppressive effects, evaluation method 1 (examiners recognizing the treated side) ([1]; 1.0% in alcohol/acetone (1:1))	Evaluation of sebosuppressive effects, evaluation method 2 (difference between righthand and lefthand side) ([1]; 1.0% in alcohol/acetone (1:1))	Evaluation of sebosuppressive effects, evaluation method 3 (difference in intensity of brown shades vs control animals) ([1]; 1.0% in alcohol/acetone (1:1))	Sebum reduction ([1]; 1.0% in alcohol/acetone (1:1)) [%]	Evaluation of sebosuppressive effects, evaluation method 1 (examiners recognizing the treated side) ([1]; 0.5% in alcohol/acetone (1:1))	Evaluation of sebosuppressive effects, evaluation method 2 (difference between righthand and lefthand side) ([1]; 0.5% in alcohol/acetone (1:1))	Evaluation of sebosuppressive effects, evaluation method 3 (difference in intensity of brown shades vs control animals) ([1]; 0.5% in alcohol/acetone (1:1))	Sebum reduction ([1]; 0.5% in alcohol/acetone (1:1)) [%]	antiseborrheic effect [2]
OCc1ccccc1 [Benzyl alcohol]	0 (≥50%)	0 (minimal (<95% probability))	0 (minimal (<95% probability))	0	–	–	–	–	–
CCCCCCCCCCc1ccc(CO)cc1 [B, 4-decylbenzyl alcohol]	–	–	–	–	++ (100%)	++ (very large (≥99.9% probability))	++ (very large (≥99.9% probability))	95	–
CCOCC=C(C)CCC=C(C)CCC=C(C)C [3,7,11-tri:methyl-2,6,10-dodecatri:en-1-ol ethyl ether]	–	–	–	–	–	–	–	–	only a very weak antiseborrheic effect
CC(=O)OCC=C(C)CCC=C(C)CCC=C(C)C [3,7,11-tri:methyl-2,6,10-dodecatri:en-1-ol acetate]	–	–	–	–	–	–	–	–	only a very weak antiseborrheic effect
CC(C)(C)c1ccc(CO)cc1 [F, 4-tert.-butylbenzyl alcohol]	++ (100%)	++ (very large (≥99.9% probability))	++ (very large (≥99.9% probability))	56	–	–	–	–	–
CCCCCCCCCCCCc1ccc(CO)cc1 [C, 4-dodecylbenzyl alcohol]	–	–	–	–	++ (100%)	++ (very large (≥99.9% probability))	++ (very large (≥99.9% probability))	32	–
OCc1ccc(-c2ccccc2)cc1 [E, 4-phenylbenzyl alcohol]	–	–	–	–	++ (100%)	++ (very large (≥99.9% probability))	++ (very large (≥99.9% probability))	72	–
CCCCCCCCCCOCc1ccc(CO)cc1 [D, 4-decyloxymethylbenzyl alcohol]	–	–	–	–	++ (100%)	++ (very large (≥99.9% probability))	++ (very large (≥99.9% probability))	82	–
CCCCCCCCc1ccc(CO)cc1 [A, 4-octylbenzyl alcohol]	–	–	–	–	++ (100%)	++ (very large (≥99.9% probability))	++ (very large (≥99.9% probability))	94	–
